Experimental data as given in paper PMC9299640, “Incorporation of β‐Alanine in Cu(II) ATCUN Peptide Complexes Increases ROS Levels, DNA Cleavage and Antiproliferative Activity” (Chemistry (Weinheim an Der Bergstrasse, Germany), 2021).

What was measured:
[1] = pH 7.4, competitivity index (CI) method; cited from earlier work
Method: Table 1 CI values calculated at pH 7.4 for Cu(II) complexes 1–7 of peptides a–g (1 mM Cu(II), peptides L and virtual competitive ligand Z) based on respective stability constants. […] The high stability of Cu−GGH (CI7.4=12.4)[14] and the novel Cu(II) Gly2−ATCUN complexes 1 and 2 (CI7.4 13.61 and […], Table 1) by formation of 5,5,6‐chelates is assumed to be res ...

HCT116 cells = assay: Cellular uptake of Cu by ICP-MS; type: cell-based, human; conditions: HCT116, 70 μM, 24 h
Method: We aimed to correlate the antiproliferative activity to the accumulation of Cu in HCT116 cells. Therefore, cells were treated for 24 h with complexes Cu−GGH, 1, 3, 4 and CuCl2 (70 μM), and the Cu content of the samples was determined by ICP‐MS (Table S13). […] The higher Cu contents probably lead to enhanced oxidative stress levels in cells, which consequently results in higher antiproliferative activity.
The antiproliferative activity of selected Cu(II) ATCUN complexes was investigated towards different tumor cell lines (HCT116, NCI-H460, SiHa and SW480 cells) and expressed as the IC50 values. Additionally, cellular uptake studies in HCT116 tumor cells were carried out and the amount of Cu was determined with inductively coupled plasma mass spectrometry (ICP-MS).
Table S13. […]
with 0.4% sulforhodamine B (Sigma-Aldrich) in 1% acetic acid for 30 min in the dark at room temperature and then washed with 1% acetic acid to remove unbound dye. The stain was dissolved in unbuffered Tris base (10 mM, Serva) for 30 min on a plate shaker in the dark and quantified on a BioTek EL808 microplate reader at an absorbance of 490 nm with a reference wavelength of 450 nm to determine the percentage of cell-growth inhibition by determining the absorbance of each sample relative to a negative (no inhibitor) and a no-growth control (day 0). […]

plasmid DNA pBR322 = conditions: 50 μM complex (Cu(II):peptide 1:1.25), pBR322 0.2 μg, MOPS 50 mM pH 7.4, ascH− 1 mM, 1 h, 37 °C; at least three experiments
Method: The influence of Gly2 and β‐Ala2 in the ATCUN motif of complexes 1–7 on the oxidative plasmid DNA cleavage activity was tested by means of gel electrophoresis. […] In Figure 3 the nuclease activity of in situ prepared 1–7, Cu−GGH and CuCl2 in the presence of ascH^− as reducing agent is shown (pH 7.4, 37 °C).
Figure 3 (Top) Nuclease activity towards plasmid DNA pBR322 (0.2 μg) of Cu(II) ATCUN complexes Cu−GGH, 1–7 (50 μM) and CuCl2 in MOPS buffer (50 mM, pH 7.4) in the presence of ascH^− (1 mM) after incubation for 1 h at 37 °C. Lane 1: DNA ladder (form I, II and III), lane 2: DNA reference, lanes 3–10 as indicated, lane 11: CuCl2. (Bottom) Visualization of the extent of DNA cleavage in percent. Error bars represent the standard deviation from at least three experiments.
A suitable concentration at which DNA forms II and III are visible, was determined to be 35 μM through a concentration‐dependent DNA cleavage experiment (S‐6.2, 0–50 μM).
All DNA cleavage experiments were
performed at least in triplicate in order to ensure reproducibility. The standard deviations
are represented as the error bars.
The in situ prepared complexes 1–7 (50 µM CuCl2 / 62.5 µM ligand, Cu(II):peptide = 1:1.25,
see S-4) and their corresponding ligands a–g (62.5 µM) were incubated with plasmid DNA […]
(form II), and linear (Form III) DNA were visualized by fluorescence imaging of […]

[2] = test system: Ehrlich ascites tumor cells; conditions: cited from earlier work
Text: Cowan et al. reported Cu(II) ATCUN complexes with anticancer, ‐viral, and ‐microbial activity as well as for DNA cleavage and enzyme inhibition.[3, 16, 17]

[3] = test system: SW480 (colon adenocarcinoma); assay: Antiproliferative activity, sulforhodamine B (SRB) assay; type: cell-based, human; conditions: after treatment with 70 μM, 72 h
Method: (§1) The antiproliferative activity of selected Cu(II) ATCUN complexes was investigated towards different tumor cell lines (HCT116, NCI-H460, SiHa and SW480 cells) and expressed as the IC50 values.
(§2) Table S13. Accumulation of Cu in HCT116 cells after 24 h incubation with Cu-GGH, 1, 3, 4 and CuCl2 (70 µM) as determined by ICP-MS (n = 3), and cytotoxic activity in human cancer cell lines HCT116, NCI-H460, SiHa and SW480 expressed as the IC50 ± SD (in µM) as well as by the residual viable cells after treatment with 70 μM of the respective compound (%) as determined by the SRB assay (exposure time 72 h). accumulated Cu IC50 values […]
(§3) a – indicates no antiproliferative activity observed after treatment with the respective compound at 70 μM for 72 h.
(§4) S-12.1 Determination of IC50 values against HCT116, NCI-H460, SiHa and SW480 […]
(§5) HCT116, SW480 and NCI-H460 cells were supplied by ATCC, while SiHa cells were supplied by Dr. David Cowan, of the Ontario Cancer Institute, Canada. The cells were grown in α-MEM (Life Technologies) supplemented with 5% fetal calf serum (Moregate Biotech) at 37 °C in a humidified incubator with 5% CO2. […]
(§6) in 96-well plates and left to settle for 24 h. Compounds were added as water solutions to the plates in a series of 3-fold dilutions for 72 h before the assay was terminated by addition of 10% trichloroacetic acid (Merck Millipore) at 4 °C for 1 h. Cells were stained […]
(§7) with 0.4% sulforhodamine B (Sigma-Aldrich) in 1% acetic acid for 30 min in the dark at room temperature and then washed with 1% acetic acid to remove unbound dye. The stain was dissolved in unbuffered Tris base (10 mM, Serva) for 30 min on a plate shaker in the dark and quantified on a BioTek EL808 microplate reader at an absorbance of 490 nm with a reference wavelength of 450 nm to determine the percentage of cell-growth inhibition by determining the absorbance of each sample relative to a negative (no inhibitor) and a no-growth control (day 0). IC50 values were calculated with SigmaPlot 12.5 (Systat Software Inc.) using a three-parameter logistic sigmoidal dose−response curve between the calculated growth inhibition and the compound concentration. The presented IC50 values are the mean of at least three independent experiments, where 10 concentrations were tested in duplicate for each compound.
(§8) Ventures), by diluting with a matrix-matched solution with regard to HNO3 and Tm concentration, producing calibration standards with concentrations of 0.5, 1, 3, 5, 7, 10, […]
(§9) The measured Cu concentrations in the cell accumulation samples were in the range of 27–82 μg/L. The reported values are the means of at least three independent accumulation experiments conducted in triplicates with blank wells for each substance to account for unspecific binding of the Cu(II) complexes to the plastic of the well plates.
(§10) Accumulation values have been corrected by subtracting the average amount Cu determined in the cell-free wells.
(§11) Calibration curves for Cu were prepared with concentrations ranging from 0.5–100 µg/L. The limit of detection (LOD) was defined as 3 times the random error in the y-direction (Sy/x) of the calibration curve divided by the slope of the calibration curve. The limit of quantification (LOQ) was defined as 10 times the random error in the y-direction (Sy/x) of the calibration curve divided by the slope of the calibration curve.42 The LOD was determined for Cu as 1.8 μg/L and the LOQ was 5.95 μg/L.

[4] = test system: NCI-H460 (non-small cell lung carcinoma); assay: as above; type: cell-based, human; conditions: after treatment with 70 μM, 72 h
Method: as §1, §2, §3, §4, §5, §6, §7, §8, §9, §10, §11

[5] = test system: HCT116 (colorectal carcinoma); assay: as above; type: cell-based, human; conditions: after treatment with 70 μM, 72 h
Method: as §1, §2, §3, §4, §5, §6, §7, §8, §9, §10, §11

[6] = test system: SiHa (cervical carcinoma); assay: as above; type: cell-based, human; conditions: after treatment with 70 μM, 72 h
Method: as §1, §2, §3, §4, §5, §6, §7, §8, §9, §10, §11

For “NH2−Gly−Gly−His−COOH [Cu−GGH, reference compound]”, the “log K 7.4 / CI7.4 of Cu(II) complex” value [1] is given as 12.4, the “cellular uptake (accumulated Cu content), approximate values” (HCT116 cells) is given as roughly 0.3 μg Cu/4×10^5 cells and the “extent of DNA cleavage, form II” value (plasmid DNA pBR322) is given as roughly 90%. For the same substance, the “antitumor effect in vivo (in words)” value [2] was “killed Ehrlich ascites tumor cells in vivo”, the “residual viable cells SW480” value [3] was 73 ± 17% and the “residual viable cells NCI-H460” value [4] was 74 ± 9%. The “residual viable cells HCT116” value [5] was 66 ± 21% and the “residual viable cells SiHa” value [6] was “– (indicates no antiproliferative activity observed after treatment with the respective compound at 70 μM for 72 h)”.
